The values that follow come from patent publication US12070505B2, “Targeted peptide-drug conjugates” (priority 2021, dated 2024).

The term LC50 denotes the concentration that kills 50% of the test population. As usually defined, the CC50 is the concentration giving 50% cytotoxicity. Read a low CC50 as harm at low concentration.

In one data set the test system is MCF-7 cells. Nature of the data set: MTS cytotoxicity assay of [(WR)8WKβA]-Dox, MCF-7. The data set is classed as cell-based. The conditions noted are these: 5 μM. On the procedure: (§1) Cytotoxic activity of the synthesized conjugate and noncovalent mixtures of cyclic [WR]9+Dox was determined in SK-OV-3, MDA-MB-231, MCF-7, MES-SA/MX2, and H9C2 cells. […] An appropriate growth medium was used for each cell line (for SK-OV-3: McCoy's […] with L-glutamine containing fetal bovine serum (FBS) (10%) and penicillin or streptomycin (1%); for MDA-MB-231 and MCF-7 cells: DMEM/F12 (1:1) (1×) with L-Glutamine and 15 mM HEPES containing FBS (10%) and penicillin or streptomycin (1%), and for MES-SA/MX2 and H9C2 cells: Minimum Essential Medium Eagle with Earle's salts and sodium bicarbonate, without L-glutamine containing FBS (10%), and penicillin or streptomycin (1%)). The cells were seeded in a complete growth medium 24 h prior to the experiment. […] The incubation was continued for 3 h.
For orientation: Tetrazolium dyes change colour on reduction, which living cells bring about.

In the next data set the test system is MDA-MB-231 cells. The note with it: naïve MDA231 cells, previous study (Aliabadi et al, 2013); cited from earlier work.
In a further data set the test system is H9C2 cells. Nature of the data set: Confocal microscopy uptake in H9C2 (Example 2). In kind it is cell-based, rat. The conditions noted are these: 5 μM, 24 h. As to the method:
Confocal Microscopy. MDA-MB-231, SK-OV-3, MES-SA/MX2, and H9C2 cells (7×10^4 cells/well) were seeded with a medium on a coverslip 24 h prior to the experiment in six well plates. After 24 h, the medium was changed with opti-MEM. The cells were treated with Dox and peptide-Dox conjugate (5 μM) in opti-MEM for 24 h. After 24 h incubation, the media were removed, and cells were washed three times with PBS in each well. Then, the cells were fixed with 3.7% formaldehyde for 10 min, followed by washing three times with PBS (pH 7.6) for 5 min. DAPI (40 μL) for staining the nuclei was placed on a microscope slide, and it was covered with the coverslip with the cell-attached side facing down. The slides were left standing horizontally in a dark place with airflow to allow faster drying. The cells were photographed using Nikon Instruments A1 Confocal Laser Microscope Series and NIS-Elements software (AR 4.30.02, 64 bit). The scan mode was selected as Galvano. The magnification and resolution were set at 40× and 1024, respectively.

The next data set concerns LLC-PK1 kidney cells. The experiment in a line: Cytotoxicity, MTS assay, normal kidney cells. The note with it: 5 μM.
In data set [1] the test system is SK-OV-3 cells. The experiment in a line: MTS cytotoxicity assay of [(WR)8WKβA]-Dox, SK-OV-3. The note with it: 5 μM, 72 h. As to the method:
as §1

The test system of data set [2] is uterine sarcoma cells (MES-SA/MX2). The conditions noted are these: 5 μM.
Description: (§2) In Vitro Cytotoxicity Assay of Peptide-Drug Conjugates. […] In brief, CCRF-CEM cells were seeded at 50,000 cells in 0.1 mL per well in 98-well plates. In the case of other cell lines, the cells were seeded at 5,000 cells (0.1 mL per well in 96-well plates). […] Dox (5 μM) was used as a positive control, while water and cell culture medium were used as negative controls. The compounds were dissolved in water; water was used as a negative control to normalize the data. After the incubation period, MTS reagent (20 μL) was added to each well. The incubation was continued for 2 h. Cell viability was then determined by determination of the fluorescence intensity at 490 nm using a SpectraMax M2 microplate spectrophotometer. The percentage of cell viability was then calculated using the following equation: [(OD value of cells treated with the compound)−(OD value of culture medium)]/[(OD value of control cells)−(OD value of culture medium)]×100% (FIGS. 6-9).
Data set [3] relates to SK-OV-3 cells. The experiment in a line: Cytotoxicity, MTS cell viability assay, SK-OV-3 (Example 1).
Description: as §2
A further data set deals with MDA-231R cells. The experiment in a line: LC50 by CCK-8 assay, Dox-resistant MDA-231R. The data set is classed as cell-based. As to the method: Dox-resistant Cell Lines. Acquired resistance to Dox was induced in wild-type triple-negative breast cancer cell line MDA-MB-231 (MDA-231WT) as described before (Aliabadi, H. M.; et al. J. Control. Release 172:219-228, 2013, which is incorporated herein by reference). Briefly, MDA-231WT cells were exposed to Dox at an initial concentration of 0.05 μg/mL for one week or three consecutive expansions (whichever came later). […] Resistance induction was confirmed via calculation of LC50 following a sigmoidal effect model explained elsewhere (Bousoik, E.; et al. Front. Oncol. 9:1070, 2019, which is incorporated herein by reference) and determination of P-glycoprotein (P-gp) expression.
The cytotoxicity of the peptide-Dox conjugate in resistant triple-negative breast cancer and uterine sarcoma cell lines (MDA-231R, MDA-231WT, and MES-SA/MX2) was evaluated by a Cell Counting 8 (CCK8) KIT. The peptide-Dox conjugate was added to the cells in triplicate with different concentrations (0-40 μM). Cells were incubated at 37° C. and 5% CO2 for 24 h. After this incubation period, 10 μL of CCK8 reagent was added to each well, and plates were incubated at the same conditions for 2 h. The absorbance of each well was determined at 450 nm using the SpectraMAX M5 microplate reader. After subtracting the signal from blank wells that contain medium without cells in the plate with CCK-8 solution added, the results were normalized to cells treated with normal saline (considered as 100%)
Efficiency in Dox-Resistant Cells. In order to compare the cytotoxic effect of free and peptide-conjugated Dox in Dox-resistant cells, MDA-231WT (as a Dox-sensitive cell line as control) and MDA-231R and MES-SA/MX2 cells as Dox-resistant cells were exposed to a wide range of Dox (or Dox-equivalent for the peptide-conjugated drug) concentrations (0.05-40 μM). Cells were seeded in 96-well plates with approximately 50% confluency and were incubated for 24 h in 37° C. and 5% CO2. […] The cell viability was determined after this incubation period using the CCK-8 assay, as explained above. […]

Another data set has as its system MES-SA/MX2 cells. Nature of the data set: MTS cytotoxicity assay of [(WR)8WKβA]-Dox, MES-SA/MX2. The note with it: 5 μM. On the procedure:
as §1

Converted amounts (≈) assume the structure as drawn. “And” between values parts separate entries of the source, which are not always exact repeats. Equal entries are not always repeated.

Description for LLC-PK1 kidney cells: In Vitro Cytotoxicity Assay of Peptide-Drug Conjugates. The cytotoxicity of the compounds was determined by using human leukemia cell line (CCRF-CEM), human ovarian adenocarcinoma cells (SKOV-3) cells, kidney cell line (LLC-PK1), gastric adenocarcinoma cells (AGS), and heart/myocardium cells (H9C2) to evaluate the toxicity of the generated peptides according to a previously reported procedure (Rahman, A.; et al. Proc. Am. Assoc. Cancer Res. 26:2295-2299, 1985, which is incorporated herein by reference). In brief, CCRF-CEM cells were seeded at 50,000 cells in 0.1 mL per well in 98-well plates. In the case of other cell lines, the cells were seeded at 5,000 cells (0.1 mL per well in 96-well plates). The cells were seeded in medium (RPMI-1640 containing FBS (10%)), 24 h prior to the experiment. The compounds at different concentrations (10-50 μM) were added to each well in triplicate and incubated for 24 and 72 h at 37° C. in a humidified atmosphere of 5% CO2. Dox (5 μM) was used as a positive control, while water and cell culture medium were used as negative controls. The compounds were dissolved in water; water was used as a negative control to normalize the data. After the incubation period, MTS reagent (20 μL) was added to each well. The incubation was continued for 2 h. Cell viability was then determined by determination of the fluorescence intensity at 490 nm using a SpectraMax M2 microplate spectrophotometer.

For `COc1cccc2c1C(=O)c1c(O)c3c(c(O)c1C2=O)C[C@@](O)(C(=O)CO)C[C@@H]3O[C@H]1C[C@H](N)[C@H](O)[C@H](C)O1` [Dox, doxorubicin, reference compound], the “reduction of cell proliferation” value with MCF-7 cells (24 h) came out at 21%; with MCF-7 cells (72 h), 57%. For the same molecule, the LC50 with MDA-MB-231 cells was 0.3 µg/mL (≈ 0.552 µM). The “uptake in heart cells (confocal microscopy, words)” value with H9C2 cells is “high uptake”. Moreover, the “reduction of cell survival” value came to 64% with LLC-PK1 kidney cells (LLC-PK1, 24 h) and 77% in the data set with LLC-PK1 kidney cells (LLC-PK1, 72 h). Also, in the data set with LLC-PK1 kidney cells (LLC-PK1, time not stated), the “reduction of viability of kidney cells” value was found to be 85%. For the same molecule, the “Cell Viability (%) after 24 h” value is 44 ± 0% and 48 ± 2% in the data set on LLC-PK1 kidney cells (normal kidney LLC-PK1); 73 ± 2% with SK-OV-3 cells [3] (5 μM); 71 ± 3% with SK-OV-3 cells [3] (10 μM). Besides, the “reduction of cell viability / inhibition of proliferation” value in the data set with SK-OV-3 cells [1] was 35%. Besides, the “Cell Viability (%) after 72 h” value stood at 119 ± 5% in data set [2], 67 ± 3% in the data set with SK-OV-3 cells [3] (5 μM) and 64 ± 1% in the data set on SK-OV-3 cells [3] (10 μM). The “toxicity” value in data set [2] (72 h) is given as “did not show any toxicity”. Further, the “reduction of cell survival/viability” value in the data set with SK-OV-3 cells [3] (5 μM, 24 h) is 27% and 30%; in the data set on SK-OV-3 cells [3] (5 μM, 72 h) it was 33%. Also, the cytotoxicity with SK-OV-3 cells [3] (Dox alone 5 and 10 μM) is 27-36%. In addition, the CC50 in the data set on MDA-231R cells (MDA-231R (Dox-resistant), FIG. 10: after 72 h) came to 36 µM. Besides, in the data set with MDA-231R cells (resistance induction), the “LC50 in MDA-MB-231R cells, times higher than the naïve cells” value is recorded as “more than 50 times”. In addition, the “efficiency against MES-SA/MX2” value with MES-SA/MX2 cells (1 μM, 10 μM, or 20 μM) is given as “did not show significant efficiency”. In addition, the “inhibition of cell viability/proliferation” value in the data set on MES-SA/MX2 cells (MES-SA/MX2) is 15%.
